Experimental data published in article PMC2762271 (Journal of medicinal chemistry, 2009).

Legend:
tubulin = assay: Inhibition of tubulin polymerization; format: biochemical; conditions: for fold less active than 5t as inhibitor of tubulin assembly: relative to 5t
L1210 = assay: Antiproliferative activity, L1210 cell line; format: cell-based; conditions: Mus musculus, L1210, read-out: IC50 L1210
[1] = tested on: L1210, FM3A, Molt4, CEM, and HeLa cell lines; assay: Antiproliferative activity, panel of five tumor cell lines; format: cell-based; conditions: on average over the cell lines

COc1cc(C(=O)c2sc(Nc3ccc(C)cc3)nc2N)cc(OC)c1OC [5t]
times more potent than 4a (tubulin assembly) (tubulin; relative to 4a): 5 times
times more potent than CA-4 (tubulin assembly) (tubulin; relative to CA-4): 2 times

COc1ccc(/C=C\c2cc(OC)c(OC)c(OC)c2)cc1O [CA-4, combretastatin A-4]
IC50 (L1210): 2.8 ± 1.1 nM

COc1cc(C(=O)c2sc(Nc3ccc(Cl)cc3)nc2N)cc(OC)c1OC [5s]
average fold reduction of potency relative to 5q (cell growth inhibition) [1]: 27 fold

COc1ccc(Nc2nc(N)c(C(=O)c3cc(OC)c(OC)c(OC)c3)s2)cc1 [5u]
average fold reduction of potency relative to 5q (cell growth inhibition) [1]: 83 fold

COc1cc(C(=O)c2sc(Nc3ccc(F)cc3)nc2N)cc(OC)c1OC [5r]
average fold reduction of potency relative to 5q (cell growth inhibition) [1]: 27 fold

Nc1nc(Nc2ccccc2)sc1C(=O)c1ccccc1 [5a]
fold less active than 5t as inhibitor of tubulin assembly (tubulin): 5 fold

COc1cccc(Nc2nc(N)c(C(=O)c3ccccc3)s2)c1 [5f]
fold less active than 5t as inhibitor of tubulin assembly (tubulin): 10 fold
